These results are taken from ChEMBL document CHEMBL4402524, “Identification of Novel Resorcinol Amide Derivatives as Potent and Specific Pyruvate Dehydrogenase Kinase (PDHK) Inhibitors” (J Med Chem, 2019).

Structures are written as SMILES.

For assay [1], the target named is [Pyruvate dehydrogenase (acetyl-transferring)] kinase isozyme 3, mitochondrial (Homo sapiens, UniProt Q15120). Nature of the assay: Inhibition of PDHK3 (unknown origin) by radiometric biochemical kinase assay.
Assay [2] addresses T1, Cytochrome P450 1A2 (Homo sapiens, UniProt P05177).
T1 sequence (P05177 whole entry): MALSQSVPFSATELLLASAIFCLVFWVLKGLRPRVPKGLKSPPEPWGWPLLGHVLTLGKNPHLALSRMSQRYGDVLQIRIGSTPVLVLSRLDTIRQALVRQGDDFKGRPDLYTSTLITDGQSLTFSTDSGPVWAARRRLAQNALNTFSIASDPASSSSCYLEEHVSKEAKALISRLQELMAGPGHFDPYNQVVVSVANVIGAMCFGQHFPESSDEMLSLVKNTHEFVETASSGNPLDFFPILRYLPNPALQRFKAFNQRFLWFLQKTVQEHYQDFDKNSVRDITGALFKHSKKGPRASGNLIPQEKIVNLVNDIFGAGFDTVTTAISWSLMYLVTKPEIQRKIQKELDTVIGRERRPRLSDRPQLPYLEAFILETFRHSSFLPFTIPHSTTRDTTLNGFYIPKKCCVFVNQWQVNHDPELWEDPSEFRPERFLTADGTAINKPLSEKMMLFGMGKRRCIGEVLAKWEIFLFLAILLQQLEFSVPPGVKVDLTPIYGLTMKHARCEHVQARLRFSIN
Nature of the assay: Inhibition of CYP1A2 (unknown origin). Format: ADME.

Assay [3] concerns the target T2, [Pyruvate dehydrogenase (acetyl-transferring)] kinase isozyme 4, mitochondrial (Homo sapiens, UniProt Q16654). Nature of the assay: Inhibition of PDHK4 (unknown origin) by radiometric biochemical kinase assay.
The target in assay [4] is T3, [Pyruvate dehydrogenase (acetyl-transferring)] kinase isozyme 2, mitochondrial (Homo sapiens, UniProt Q15119). Nature of the assay: Inhibition of PDHK2 (unknown origin) by radiometric biochemical kinase assay.
In assay [5] the target is Cytochrome P450 3A4 (Homo sapiens, UniProt P08684). Description: Inhibition of CYP3A4 (unknown origin). Format: ADME.
Assay [6] deals with T3, [Pyruvate dehydrogenase (acetyl-transferring)] kinase isozyme 2, mitochondrial. Description: Inhibition of PDHK2 (unknown origin) assessed as reduction in NAD measured for 30 mins.
Assay [7] concerns the target Cytochrome P450 2C19 (Homo sapiens, UniProt P33261). Nature of the assay: Inhibition of CYP2C19 (unknown origin). The assay is classed as ADME.
Assay [8] relates to NCI-H1299. Description: Antiproliferative activity against p53 deficient human H1299 cells incubated for 72 hrs by CellTiter-Glo assay. Format: functional. To be noted: NCI-H1299, 72 h.
The target of assay [9] is [Pyruvate dehydrogenase (acetyl-transferring)] kinase isozyme 1, mitochondrial (Homo sapiens, UniProt Q15118). Nature of the assay: Inhibition of PDHK1 (unknown origin) by radiometric biochemical kinase assay.
The target in assay [10] is Heat shock protein HSP90 (Homo sapiens, UniProt P07900+P08238). Nature of the assay: Inhibition of HSP90 (unknown origin). Format: protein assay.
For assay [11], the target named is Cytochrome P450 2D6 (Homo sapiens, UniProt P10635). Nature of the assay: Inhibition of CYP2D6 (unknown origin). Format: ADME.
Assay [12] relates to DU-145. Nature of the assay: Antiproliferative activity against p53 deficient human DU145 cells incubated for 72 hrs by CellTiter-Glo assay. Format: functional. To be noted: DU-145, 72 h.
Assay [13] deals with T2, [Pyruvate dehydrogenase (acetyl-transferring)] kinase isozyme 4, mitochondrial. Nature of the assay: Inhibition of PDHK4 (unknown origin) assessed as reduction in NAD measured for 30 mins.
For assay [14], the target named is Cytochrome P450 2C9 (Homo sapiens, UniProt P11712). Description: Inhibition of CYP2C9 (unknown origin). Format: ADME.
Assay [15] deals with NCI-H1299. Nature of the assay: Synergistic antiproliferative activity against human H1299 cells at 20 uM incubated for 72 hrs in presence of satra-platin by CellTiter-Glo assay relative to control. The assay is classed as functional. To be noted: NCI-H1299, 72 h.
The subject of assay [16] is DU-145. Nature of the assay: Induction of apoptosis in human DU145 cells assessed as increase in apoptotic cells at 30 uM incubated for 48 hrs by FITC Annexin-V and PI staining based flow cytometric analysis relative to control. The assay is classed as functional.
The subject of assay [17] is NCI-H1299. Description: Inhibition of anchorage-independent colony formation in human H1299 cells at 20 uM incubated for 14 days by p iodonitrotetrazolium violet staining based method relative to control. Format: functional. To be noted: NCI-H1299, 336 h.
Assay [18] relates to NCI-H1299. Nature of the assay: Antiproliferative activity against p53 deficient human H1299 cells at 20 uM incubated for 72 hrs by CellTiter-Glo assay relative to control. The assay is classed as functional.
For assay [19], the system named is NCI-H1299. Description: Antiproliferative activity against PDHK1/2 double knockdown human H1299 cells transfected with PDHK1/2 siRNA at 10 uM incubated for 48 hrs by CellTiter-Glo assay relative to control. The assay is classed as functional.
Assay [20] has as its system NCI-H1299. Nature of the assay: Induction of apoptosis in human H1299 cells assessed as increase in apoptotic cells at 30 uM incubated for 48 hrs by FITC Annexin-V and PI staining based flow cytometric analysis relative to control. The assay is classed as functional.
Assay [21] deals with NCI-H1299. Description: Synergistic induction of apoptosis in human H1299 cells assessed as increase in apoptotic cells at 10 uM incubated for 48 hrs in presence of satra-platin by FITC Annexin-V and PI staining based flow cytometric analysis relative to control. Format: functional.
Assay [22] relates to NCI-H1299. Nature of the assay: Antiproliferative activity against human H1299 cells transfected with control siRNA at 10 uM incubated for 48 hrs in by CellTiter-Glo assay relative to control. The assay is classed as functional.

[Pyruvate dehydrogenase (acetyl-transferring)] kinase isozyme 3, mitochondrial, sequence (Q15120 whole entry): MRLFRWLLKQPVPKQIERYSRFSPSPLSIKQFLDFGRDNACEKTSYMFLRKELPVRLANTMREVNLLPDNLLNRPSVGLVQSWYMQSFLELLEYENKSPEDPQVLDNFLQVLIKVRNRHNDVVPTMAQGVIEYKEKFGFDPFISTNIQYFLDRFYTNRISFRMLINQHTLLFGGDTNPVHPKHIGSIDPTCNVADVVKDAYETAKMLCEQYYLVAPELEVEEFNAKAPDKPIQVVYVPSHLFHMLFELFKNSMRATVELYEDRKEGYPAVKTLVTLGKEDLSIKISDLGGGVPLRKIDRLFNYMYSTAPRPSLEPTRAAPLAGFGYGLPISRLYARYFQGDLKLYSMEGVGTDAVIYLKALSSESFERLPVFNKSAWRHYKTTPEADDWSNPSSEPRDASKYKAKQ
T2 sequence (Q16654 whole entry): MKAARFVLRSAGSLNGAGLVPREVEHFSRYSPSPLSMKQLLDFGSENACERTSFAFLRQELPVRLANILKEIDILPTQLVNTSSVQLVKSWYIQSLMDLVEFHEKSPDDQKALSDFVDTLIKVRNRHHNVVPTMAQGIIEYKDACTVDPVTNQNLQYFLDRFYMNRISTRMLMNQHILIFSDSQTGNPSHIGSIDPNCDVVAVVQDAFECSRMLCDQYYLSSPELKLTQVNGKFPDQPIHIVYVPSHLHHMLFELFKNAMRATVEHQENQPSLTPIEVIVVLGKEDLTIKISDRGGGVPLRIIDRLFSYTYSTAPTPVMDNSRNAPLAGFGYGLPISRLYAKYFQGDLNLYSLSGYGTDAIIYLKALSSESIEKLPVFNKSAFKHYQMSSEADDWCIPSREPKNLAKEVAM
[Pyruvate dehydrogenase (acetyl-transferring)] kinase isozyme 1, mitochondrial, sequence (Q15118 whole entry): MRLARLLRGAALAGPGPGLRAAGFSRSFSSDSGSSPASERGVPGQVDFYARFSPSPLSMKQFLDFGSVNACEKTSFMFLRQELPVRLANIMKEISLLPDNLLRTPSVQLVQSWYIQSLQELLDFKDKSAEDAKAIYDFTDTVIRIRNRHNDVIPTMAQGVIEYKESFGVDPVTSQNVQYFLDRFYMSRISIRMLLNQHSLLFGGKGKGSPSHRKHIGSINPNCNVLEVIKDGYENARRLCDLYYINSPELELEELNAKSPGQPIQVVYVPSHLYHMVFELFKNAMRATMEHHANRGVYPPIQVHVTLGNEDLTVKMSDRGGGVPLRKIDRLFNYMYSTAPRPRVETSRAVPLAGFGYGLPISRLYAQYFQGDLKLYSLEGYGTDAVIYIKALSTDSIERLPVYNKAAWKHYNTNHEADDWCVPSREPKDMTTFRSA
Cytochrome P450 2C19, sequence (P33261 whole entry): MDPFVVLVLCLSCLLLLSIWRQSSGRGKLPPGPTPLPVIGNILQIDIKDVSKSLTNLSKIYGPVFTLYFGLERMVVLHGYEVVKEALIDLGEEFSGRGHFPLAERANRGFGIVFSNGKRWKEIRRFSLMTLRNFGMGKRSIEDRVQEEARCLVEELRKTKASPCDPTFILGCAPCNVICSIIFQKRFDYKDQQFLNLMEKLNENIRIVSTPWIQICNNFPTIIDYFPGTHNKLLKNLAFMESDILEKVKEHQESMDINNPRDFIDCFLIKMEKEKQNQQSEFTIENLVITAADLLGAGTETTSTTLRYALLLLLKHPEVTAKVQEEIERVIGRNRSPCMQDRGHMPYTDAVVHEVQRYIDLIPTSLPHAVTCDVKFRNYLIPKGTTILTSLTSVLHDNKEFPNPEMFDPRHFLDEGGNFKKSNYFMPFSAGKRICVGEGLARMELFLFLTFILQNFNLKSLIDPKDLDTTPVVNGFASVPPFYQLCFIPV
Cytochrome P450 2C9, sequence (P11712 whole entry): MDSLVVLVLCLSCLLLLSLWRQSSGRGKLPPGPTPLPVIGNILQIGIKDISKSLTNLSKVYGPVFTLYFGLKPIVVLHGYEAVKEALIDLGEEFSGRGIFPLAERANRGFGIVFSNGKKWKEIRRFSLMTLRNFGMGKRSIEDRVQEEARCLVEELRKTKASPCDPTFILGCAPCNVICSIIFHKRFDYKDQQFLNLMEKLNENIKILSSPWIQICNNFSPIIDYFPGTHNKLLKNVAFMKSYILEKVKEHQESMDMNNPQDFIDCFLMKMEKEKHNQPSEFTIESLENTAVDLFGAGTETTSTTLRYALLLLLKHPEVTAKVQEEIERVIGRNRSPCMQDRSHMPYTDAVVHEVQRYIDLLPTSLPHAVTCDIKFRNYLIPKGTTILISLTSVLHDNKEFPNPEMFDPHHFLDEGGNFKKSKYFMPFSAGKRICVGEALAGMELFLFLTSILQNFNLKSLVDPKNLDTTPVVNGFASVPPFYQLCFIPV
Cytochrome P450 2D6, sequence (P10635 whole entry): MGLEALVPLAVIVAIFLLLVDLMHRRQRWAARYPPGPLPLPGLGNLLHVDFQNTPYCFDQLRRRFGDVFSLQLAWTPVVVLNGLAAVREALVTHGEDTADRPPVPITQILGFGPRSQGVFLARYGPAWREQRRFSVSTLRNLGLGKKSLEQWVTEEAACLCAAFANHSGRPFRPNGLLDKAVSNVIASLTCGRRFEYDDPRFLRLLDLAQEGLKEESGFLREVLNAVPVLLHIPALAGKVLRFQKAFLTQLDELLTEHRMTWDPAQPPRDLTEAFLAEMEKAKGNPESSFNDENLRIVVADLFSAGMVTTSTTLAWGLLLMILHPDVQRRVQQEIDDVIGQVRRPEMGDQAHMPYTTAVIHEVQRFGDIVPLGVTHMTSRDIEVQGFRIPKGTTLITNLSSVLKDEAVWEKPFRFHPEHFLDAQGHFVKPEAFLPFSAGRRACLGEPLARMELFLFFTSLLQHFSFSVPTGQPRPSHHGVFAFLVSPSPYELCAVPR
Cytochrome P450 3A4, sequence (P08684 whole entry): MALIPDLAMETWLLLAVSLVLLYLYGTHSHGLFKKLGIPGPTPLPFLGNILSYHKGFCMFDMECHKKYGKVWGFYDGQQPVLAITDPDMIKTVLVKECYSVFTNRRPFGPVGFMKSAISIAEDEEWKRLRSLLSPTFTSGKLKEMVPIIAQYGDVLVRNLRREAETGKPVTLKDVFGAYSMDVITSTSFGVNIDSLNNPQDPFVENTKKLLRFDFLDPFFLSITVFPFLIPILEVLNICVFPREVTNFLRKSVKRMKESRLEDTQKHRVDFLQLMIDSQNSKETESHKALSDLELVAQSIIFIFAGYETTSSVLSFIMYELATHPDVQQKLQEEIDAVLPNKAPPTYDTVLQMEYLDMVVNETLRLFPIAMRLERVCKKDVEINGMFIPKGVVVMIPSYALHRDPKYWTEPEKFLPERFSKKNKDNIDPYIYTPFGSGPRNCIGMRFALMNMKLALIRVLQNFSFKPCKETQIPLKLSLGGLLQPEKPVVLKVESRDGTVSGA

In the case of `CN(C)C(=O)c1ccc(N(Cc2ccc(O)cc2)C(=O)c2ccc(O)cc2O)cc1`, the IC50 in assay [1] is 0.136 µM; in assay [2], above 20 µM; in [3], 0.034 µM; in assay [4], 0.15 µM; in [5], 6.47 µM; in assay [6], 1.46 µM. For the same compound, the 50% inhibitory concentration (IC50) in assay [7] is above 20 µM; in [9] it was 0.113 µM; in [10] it was above 10 µM; in assay [11], above 20 µM; in assay [13], 1.31 µM; in assay [14], 13.4 µM. Further, the GI50 came to 4.9 µM in assay [8] and 3.5 µM in assay [12].
Consider `CN(C)C(=O)c1ccc(N(Cc2ccc(Br)o2)C(=O)c2ccc(O)cc2O)cc1`, for which the IC50 in [1] was 0.059 µM; in [2] it was above 20 µM; in assay [3] it was 0.013 µM; in [4] it was 0.01 µM; in [5], 1.4 µM; in [6], 2.09 µM. Moreover, the IC50 in assay [7] was 4.3 µM; in assay [9], 0.036 µM; in assay [10] it was 0.83 µM; in assay [11], above 20 µM; in [13] it was 0.31 µM; in assay [14], above 20 µM. Further, the values for the GI50 in assay [15], in assay [8] and in assay [12] were 5.5 µM, 13.4 µM and 10.2 µM, respectively. For the same compound, the Activity in assay [16] is given as 60%; in [18], 70%; in assay [19] it was 32%; in assay [20] it was 24.8%; in assay [21] it was 30 - 34%; in [22], 50%. Further, the inhibition at 20 µM in assay [17] turned out to be 100%.
Consider `CN(C)C(=O)c1ccc(N(Cc2cc(Br)cs2)C(=O)c2ccc(O)cc2O)cc1`, for which the IC50 is 0.08 µM in assay [1]; above 20 µM in [2]; 0.005 µM in assay [3]; 0.008 µM in assay [4]; below 1 µM in assay [5]; 7.8 µM in assay [7]. Further, the IC50 in assay [9] was 0.009 µM; in [10], 5.79 µM; in assay [11], above 20 µM; in [14], 18 µM. Besides, the GI50 in assay [8] worked out at 51.6 µM; in assay [12], 41.9 µM.
In the case of `O=C(O)C(Cl)Cl` [DICHLOROACETIC ACID], the GI50 in [15] amounted to 8.5 µM.
